Experimental data reported in patent US20170320939A1, “COLL2-1 PEPTIDE AND ITS NITRATED FORM AS THERAPEUTIC TARGETS FOR OSTEOARTHRITIS TREATMENT” (Université de Liège, priority 2014, published 2017).
One block for each compound: values may come before it. Square brackets hold non-standard residues; d marks the D form. Ends that are not written are not given here. Tyr(3-NO2) = N[C@@H](Cc1ccc(O)c([N+](=O)[O-])c1)C(=O)O

What was measured:
TLR-4 = target: T1, TLR-4 (Homo sapiens, UniProt O00206); test: Inhibition of TLR-4 receptor: IL-8 expression by osteoarthritic synoviocytes; format: cell-based; conditions: 1 hour pre-treatment with CLI-095 (500 nM, 1 and 2.5 μM), then 24 hours Coll2-1 at 4.5 nmol
T1 construct: endogenous in cells; host or cells: osteoarthritic synoviocytes (synovial fibroblast cells)
Text: (§1) 1.4 RNA extraction and Real Time Reverse Transcriptase-Polymerase Chain Reaction (RT PCR). Total RNA were extracted using the RNeasy Mini Kit (Qiagen, Netherlands) and were reverse transcribed with SuperScript III Reverse Transcriptase (Invitrogen, Belgium) according to the manufacturer's instructions. The cDNAs were quantified by real-time quantitative PCR using the Rotor Gene instrument (Qiagen, Venlo, Netherlands) and the SYBR Premix Ex Taq kit (Takara, Verviers, Belgium). The level of gene expression was determined by interpolation with a standard curve. To standardize mRNA levels, HPRT, a house keeping gene, was amplified as an internal control. The oligonucleotide primers sequences were as follow: HPRT forward, 5′-[…]-3′ (SEQ ID NO: 2); HPRT reverse, 5′-TGCCTGACCAAGGAAAGC-3′ (SEQ ID NO: 3); TSP-1 forward, 5′-CAGACCGCATTGGAGATAC-3′ (SEQ ID NO: 4); TSP-1 reverse, 5′-[…]-3′ (SEQ ID NO: 5); VEGF forward, 5′-TGCCTTGCTGCTCTAC-3′ (SEQ ID NO: 6); VEGF reverse, 5′-CACACAGGATGGCTTGAA-3′ (SEQ ID NO: 7); IL-6 forward, 5′-AAACAAATTCGGTACATCCTCG-3′ (SEQ ID NO: 8); IL-6 reverse, 5′-CCA GGC AAG TCT CCT CAT-3′ (SEQ ID NO: 9); IL-8 forward, 5′-GGAACCATCTCACTGTGTGTAA-3′ (SEQ ID NO: 10); IL-8 reverse, 5′-TGGAAAGGTTTGGAGTATGTCT-3′ (SEQ ID NO: 11).
Inhibition of TLR-4 receptor. […]

NF-κB = NF-κB activation, Western blotting of phospho-p65 and phospho-IκBα; format: cell-based; conditions: oxidative stress inhibitors: apocynin 0.2 mM and diphenyleneiodonium 6.35 10^−2 mM
Protocol: Western blotting. Cells were collected at 4° C. and lysed on ice in 50 μl of buffer (25 mM Hepes, 150 mM NaCl, 0.5% Triton X-100, 10% glycerol, and 1 mM dithiothreitol) containing protease and phosphatase inhibitors. After incubation at 4° C. for 30 minutes, lysates were then centrifugated at 14,000 g for 30 minutes at 4° C. to remove insoluble debris. Protein concentrations were determined using BCA assay. Total protein extracts (10 μg) were fractioned by electrophoresis on a polyacrylamide gel (10%) and transferred onto a PVDF membrane. Membrane were blocked for 1 h in TBS-Tween containing 2% bovine serum albumin (phosphor-NF-κB p65 and phospho-IκBα). Membranes were then incubated overnight at 4° C. with primary antibodies. Anti-rabbit phospho-NF-κB p65 (1:1000 dilution), anti-rabbit phospho-IκBα (1:1000 dilution) were used. Horse-radish peroxidase (HRP)-linked anti-rabbit IgG antibody (1:2000 dilution) was used as secondary antibody.

IL-6 = IL-6 mRNA expression by Real Time PCR in OA synovial fibroblast cells; format: cell-based, human; conditions: increasing concentrations of peptide, 24 hours
Protocol: (§2) 1.3 Treatment of synovial fibroblast cells. Cells were seeded into a six-well plate at the density of 2×10^5 cells/well in 2 ml of CM. When the cells reached confluence, the CM was replaced with 1% serum medium for 24 h to keep the cells quiescent. Cells were incubated for 24 hours with or without peptides Coll2-1 (^108HRGYPGLDG^116; 0.45 and 4.5 nmol) or Coll2-1NO2 (^108HRGYPGLDG-NO2^116; 4 and 40 pmol) at a range of concentrations found in the blood of osteoarthritic patients.
(§3) 1.4 RNA extraction and Real Time Reverse Transcriptase-Polymerase Chain Reaction (RT PCR). Total RNA were extracted using the RNeasy Mini Kit (Qiagen, Netherlands) and were reverse transcribed with SuperScript III Reverse Transcriptase (Invitrogen, Belgium) according to the manufacturer's instructions. The cDNAs were quantified by real-time quantitative PCR using the Rotor Gene instrument (Qiagen, Venlo, Netherlands) and the SYBR Premix Ex Taq kit (Takara, Verviers, Belgium). The level of gene expression was determined by interpolation with a standard curve. To standardize mRNA levels, HPRT, a house keeping gene, was amplified as an internal control. […]

[1] = tested on: OA synovial fibroblast cells; test: NO production in OA synovial fibroblast cells; format: cell-based, human; conditions: Coll2-1 (0.45 and 4.5 nmol) or Coll2-1NO2 (4 and 40 pmol), 24 hours
Protocol: (§4) 1.1 Patients. Synovial tissue samples were obtained from 10 patients (8 women, 2 man; mean age 70 +/−6 years) with osteoarthritis (OA) of the knee at the time of total knee joint replacement surgery. All the subjects provided their informed consent.
(§5) 1.2 Isolation and culture of synovial cells. Synovium biopsies were digested is with collagenase from Clostridium histolyticum, Type IA (1 mg/ml) (Sigma-Aldrich, Saint-Louis, USA) and 0.25% trypsin (Sigma Aldrich, Saint Louis, USA) with 0.68 mM EDTA in Tris buffer 0.1M, pH 7.4 in complete medium (CM) (DMEM (Dulbecco's Modified Eagle's Medium) Low Glucose supplemented with 10 mM HEPES, 100 U/ml penicillin, 100 μg/ml streptomycin, 2 mM glutamine and 10% fetal calf serum (Lonza, Verviers, Belgium)) for 1 hour at 37° C. The cells suspensions were passed through a 70-μm filter to remove any undigested tissue. The filtered cells suspensions were then collected by centrifugation at 800 g and were cultured in culture flasks. After 24 hours, medium was changed to eliminate non adherent cells. Synovial fibroblasts cells (SFC) were used after three passages. […]
1.7 NO production. Nitric oxide production was evaluated using a DAF2-DA fluorescent probe (Molecular Probes, Leiden, The Netherlands). […] The fluorescence intensity was measured every hour for 6 hours. […] The numbers of adherent cells were measured by cristal violet assay.

TSP1 = TSP1 mRNA expression by Real Time PCR in OA synovial fibroblast cells; format: cell-based, human; conditions: 24 hours
Protocol: as §2, §1

[2] = tested on: OA synovial fibroblast cells; test: Intracellular GSH assay in OA synovial fibroblast cells; format: cell-based, human; conditions: Coll2-1NO2 at 4 and 40 pmol, 24 hours
Protocol: as §4, §5
1.6 GSH assay. Levels of intracellular GSH were assessed by monoclorobimane staining. […] The fluorescence intensities were measured at […] using excitation and emission wavelengths of 380 and 485 nm, respectively. The intracellular GSH level was expressed as arbitrary units of fluorescence intensity.

[3] = tested on: OA synovial fibroblast cells; test: Intracellular H2O2 production in OA synovial fibroblast cells; format: cell-based, human; conditions: 24 hours
Protocol: as §4
1.2 Isolation and culture of synovial cells. Synovium biopsies were digested is with collagenase from Clostridium histolyticum, Type IA (1 mg/ml) (Sigma-Aldrich, Saint-Louis, USA) and 0.25% trypsin (Sigma Aldrich, Saint Louis, USA) with 0.68 mM EDTA in Tris buffer 0.1M, pH 7.4 in complete medium (CM) (DMEM (Dulbecco's Modified Eagle's Medium) Low Glucose supplemented with 10 mM HEPES, 100 U/ml penicillin, 100 μg/ml streptomycin, 2 mM glutamine and 10% fetal calf serum (Lonza, Verviers, Belgium)) for 1 hour at 37° C. The cells suspensions were passed through a 70-μm filter to remove any undigested tissue. The filtered cells suspensions were then collected by centrifugation at 800 g and were cultured in culture flasks. After 24 hours, medium was changed to eliminate non adherent cells. Synovial fibroblasts cells (SFC) were used after three passages.
as §2
1.5 Intracellular H2O2 and O2^∘^− productions. Levels of intracellular superoxide anion (O2^∘^−) and hydrogen peroxide (H2O2) were assessed spectrofluorimetrically by oxidation of specific probes: dihydroethidium (Molecular Probes, Leiden, The Netherlands) and H2DCFH-DA (Molecular Probes, Leiden, The Netherlands) respectively. Synovial cells seeded on 96-well plates (8×10^3 cells per well) were washed once with phosphate-buffered saline and then incubated with 50 μL of phosphate-buffered saline containing either 250 μM dihydroethidium or 200 μM H2DCFH-DA. The fluorescence intensity was measured every hour for 6 hours. The levels of O2^∘^− or H2O2 are expressed in arbitrary unit/living cell. The numbers of adherent cells were measured by crystal violet assay.

VEGF = VEGF mRNA expression by Real Time PCR in OA synovial fibroblast cells; format: cell-based, human; conditions: increasing concentrations: Coll2-1 (0.45 and 4.5 nmol) or Coll2-1NO2 (4 and 40 pmol), 24 hours
Protocol: as §2, §3

IL-8 = IL-8 mRNA expression by Real Time PCR in OA synovial fibroblast cells; format: cell-based, human; conditions: increasing concentrations: Coll2-1 (0.45 and 4.5 nmol) or Coll2-1NO2 (4 and 40 pmol), 24 hours
Protocol: as §2, §1

T1 sequence (O00206 24-839): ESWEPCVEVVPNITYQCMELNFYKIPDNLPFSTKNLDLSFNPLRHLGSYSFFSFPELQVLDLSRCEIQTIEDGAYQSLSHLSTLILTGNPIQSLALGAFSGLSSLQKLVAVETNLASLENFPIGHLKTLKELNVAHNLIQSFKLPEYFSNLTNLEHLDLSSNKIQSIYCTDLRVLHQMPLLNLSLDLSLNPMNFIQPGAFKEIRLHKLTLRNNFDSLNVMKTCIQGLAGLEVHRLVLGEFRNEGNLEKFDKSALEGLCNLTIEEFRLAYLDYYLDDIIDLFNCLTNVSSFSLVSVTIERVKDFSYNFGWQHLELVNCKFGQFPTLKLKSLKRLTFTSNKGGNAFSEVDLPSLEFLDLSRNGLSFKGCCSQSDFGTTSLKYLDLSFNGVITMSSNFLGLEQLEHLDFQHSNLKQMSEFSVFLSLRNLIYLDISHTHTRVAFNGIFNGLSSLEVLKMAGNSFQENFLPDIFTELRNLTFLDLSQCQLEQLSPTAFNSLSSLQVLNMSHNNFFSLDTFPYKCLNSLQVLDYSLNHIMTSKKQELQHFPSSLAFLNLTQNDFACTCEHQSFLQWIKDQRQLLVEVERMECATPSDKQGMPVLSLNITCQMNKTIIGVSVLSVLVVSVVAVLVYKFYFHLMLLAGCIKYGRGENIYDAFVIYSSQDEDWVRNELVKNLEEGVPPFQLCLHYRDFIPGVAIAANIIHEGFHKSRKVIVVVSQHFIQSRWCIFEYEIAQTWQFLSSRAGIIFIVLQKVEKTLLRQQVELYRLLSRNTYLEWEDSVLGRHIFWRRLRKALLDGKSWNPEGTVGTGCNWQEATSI

IL-8 expression by osteoarthritic synoviocytes in the presence of Coll2-1 (TLR-4): decrease
Compound: CCOC(=O)C1=CCCC[C@H]1S(=O)(=O)Nc1ccc(F)cc1Cl [CLI-095]

Compound: COc1cc(C(C)=O)ccc1O [apocynin]
Coll2-1 induced IκBα degradation (NF-κB): decreased
Coll2-1 induced phosphorylation and translocation of p65 (NF-κB): inhibited

Compound: c1ccc2c(c1)[I+]c1ccccc1-2 [diphenyleneiodonium]
Coll2-1 induced IκBα degradation (NF-κB): decreased
Coll2-1 induced phosphorylation and translocation of p65 (NF-κB): inhibited

Compound: HRGY(NO2)PGLDG (HRG[Tyr(3-NO2)]PGLDG) [Coll2-1NO2, nitrated form of the Coll2-1 peptide]
IL-6 expression (IL-6): increased
production of NO (nitric oxide) [1]: decreased significantly
decrease of TSP1 expression, significance (TSP1; Coll2-1NO2 at 40 pmol): significant
TSP1 expression (TSP1; increasing concentrations: Coll2-1 (0.45 and 4.5 nmol) or Coll2-1NO2 (4 and 40 pmol)): decreased
intracellular level of GSH [2]: significant decrease
intracellular production of H2O2 ([3]; Coll2-1NO2 at 4 pmol): significantly increased
intracellular production of H2O2 ([3]; Coll2-1NO2 at 40 pmol): significantly increased
VEGF expression (VEGF): tended to increase
IL-8 expression (IL-8): increased
